Test system: HOP-62 complex spheroids with HUVEC/MSC, viability
Test: Anticancer human tumor HOP-62 cell line growth inhibition [RAS];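 note: spheroids exposed to agents for seven days before readout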;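 for viability, T/C: 100% = DMSO vehicle control viability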
Conditions: for viability, T/C: stronger effect = lower value
Summary of the method: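 Agents were tested in combination matrices in half-log decrements from a top concentration at or near clinical Cmax (10 microM if undetermined). Targets were multi-cell spheroids of tumour lines plus HUVEC and MSC stromal cells.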

[1] = curve of first compound, second compound 0.000949 µM
[2] = curve of first compound, second compound 0.003 µM
[3] = curve of first compound, second compound 0.00949 µM
[4] = curve of first compound, second compound 0.03 µM
[5] = curve of first compound, second compound 0.0949 µM
[6] = curve of first compound, second compound 0.3 µM
[7] = second compound 0.000949 µM, first compound 0.0316 µM
[8] = second compound 0.000949 µM, first compound 0.1 µM
[9] = second compound 0.000949 µM, first compound 0.316 µM
[10] = second compound 0.000949 µM, first compound 1 µM
[11] = second compound 0.000949 µM, first compound 3.16 µM
[12] = second compound 0.000949 µM, first compound 10 µM
[13] = second compound 0.003 µM, first compound 0.0316 µM
[14] = second compound 0.003 µM, first compound 0.1 µM
[15] = second compound 0.003 µM, first compound 0.316 µM
[16] = second compound 0.003 µM, first compound 1 µM
[17] = second compound 0.003 µM, first compound 3.16 µM
[18] = second compound 0.003 µM, first compound 10 µM
[19] = second compound 0.00949 µM, first compound 0.0316 µM
[20] = second compound 0.00949 µM, first compound 0.1 µM
[21] = second compound 0.00949 µM, first compound 0.316 µM
[22] = second compound 0.00949 µM, first compound 1 µM
[23] = second compound 0.00949 µM, first compound 3.16 µM
[24] = second compound 0.00949 µM, first compound 10 µM
[25] = second compound 0.03 µM, first compound 0.0316 µM
[26] = second compound 0.03 µM, first compound 0.1 µM
[27] = second compound 0.03 µM, first compound 0.316 µM
[28] = second compound 0.03 µM, first compound 1 µM
[29] = second compound 0.03 µM, first compound 3.16 µM
[30] = second compound 0.03 µM, first compound 10 µM
[31] = second compound 0.0949 µM, first compound 0.0316 µM
[32] = second compound 0.0949 µM, first compound 0.1 µM
[33] = second compound 0.0949 µM, first compound 0.316 µM
[34] = second compound 0.0949 µM, first compound 1 µM
[35] = second compound 0.0949 µM, first compound 3.16 µM
[36] = second compound 0.0949 µM, first compound 10 µM
[37] = second compound 0.3 µM, first compound 0.0316 µM
[38] = second compound 0.3 µM, first compound 0.1 µM
[39] = second compound 0.3 µM, first compound 0.316 µM
[40] = second compound 0.3 µM, first compound 1 µM
[41] = second compound 0.3 µM, first compound 3.16 µM
[42] = second compound 0.3 µM, first compound 10 µM

How did the viability, T/C (compound 0.0316 µM) turn out when CC(C)NCC(C(=O)N1CCN(c2ncnc3c2C(C)CC3O)CC1)c1ccc(Cl)cc1 (stereo not given) was run?
Its viability, T/C is 105% [middle of 4 runs].

And the viability, T/C (compound 0.1 µM)?
Its viability, T/C is 105% [middle of 4 runs].

What about the viability, T/C (compound 0.316 µM) of the same compound?
Its viability, T/C is 98.4% [middle of 4 runs].

Which results are given for NC1c2ccccc2OC12CCN(c1cnc3c(N4CCCc5ncccc54)n[nH]c3n1)CC2 (stereo not given) + CCn1c(-c2cccnc2C(C)OC)c2c3cc(ccc31)N1CCOC(CC(NC(=O)C(C(C)C)N(C)C(=O)C3(F)CCN(C(=O)C#CC(C)(C)N(C)C)CC3)C(=O)N3CCCC(N3)C(=O)OCC(C)(C)C2)C1?
IC50 [1]: 183 nM; IC50 [2]: 429 nM; IC50 [3]: 52.7 nM; IC50 [4]: 64.6 nM; IC50 [5]: 39.1 nM; IC50 [6]: < 31.6 nM; viability, T/C [7]: 91.2%; viability, T/C [8]: 70.6%; viability, T/C [9]: 27.8%; viability, T/C [10]: 44.5%; viability, T/C [11]: 33.4%; viability, T/C [12]: 19.4%; viability, T/C [13]: 69.4%; viability, T/C [14]: 48.5%; viability, T/C [15]: 60.5%; viability, T/C [16]: 23.9%; viability, T/C [17]: 19.3%; viability, T/C [18]: 9.81%; viability, T/C [19]: 60%; viability, T/C [20]: 35.3%; viability, T/C [21]: 29.6%; viability, T/C [22]: 22.7%; viability, T/C [23]: 14.8%; viability, T/C [24]: 13.2%; viability, T/C [25]: 64.1%; viability, T/C [26]: 42.1%; viability, T/C [27]: 24%; viability, T/C [28]: 28.3%; viability, T/C [29]: 12%; viability, T/C [30]: 14.6%; viability, T/C [31]: 53.3%; viability, T/C [32]: 35.5%; viability, T/C [33]: 20.7%; viability, T/C [34]: 16.8%; viability, T/C [35]: 11.5%; viability, T/C [36]: 14.7%; viability, T/C [37]: 44.4%; viability, T/C [38]: 28.6%; viability, T/C [39]: 18.4%; viability, T/C [40]: 15.6%; viability, T/C [41]: 13.5%; viability, T/C [42]: 15.2%

Which results are given for CCc1c2c(nc3ccc(O)cc13)-c1cc3c(c(=O)n1C2)COC(=O)[C@]3(O)CC?
viability, T/C (compound 0.003 µM): 22.4% [middle of 4 runs]; viability, T/C (compound 0.00949 µM): 10.6% [middle of 4 runs]; viability, T/C (compound 0.03 µM): 7.82% [middle of 4 runs]; viability, T/C (compound 0.0949 µM): 5.87% [middle of 4 runs]; viability, T/C (compound 0.3 µM): 3.8% [middle of 4 runs]; IC50 (curve of compound): 1.34 nM [middle of 4 runs]

How did the IC50 (curve of first compound, second compound 0.00316 µM) turn out when NC1c2ccccc2OC12CCN(c1cnc3c(N4CCCc5ncccc54)n[nH]c3n1)CC2 (stereo not given) + C=CC(=O)N1CCN(c2nc(OCC3CCCN3C)nc3c(F)c(-c4nc(N)cc(C)c4C(F)(F)F)c(Cl)cc23)C(C)C1 was run?
Its IC50 is under 31.6 nM.

What about the IC50 (curve of first compound, second compound 0.01 µM) of the same compound?
Its IC50 is under 31.6 nM.

And the IC50 (curve of first compound, second compound 0.0316 µM)?
Its IC50 is under 31.6 nM.

What about the IC50 (curve of first compound, second compound 0.1 µM) of the same compound?
Its IC50 is under 31.6 nM.

What about the IC50 (curve of first compound, second compound 0.316 µM) of the same compound?
Its IC50 is under 31.6 nM.

And the IC50 (curve of first compound, second compound 1 µM)?
Its IC50 is under 31.6 nM.

What about the viability, T/C (second compound 0.00316 µM, first compound 0.0316 µM) of the same compound?
The viability, T/C was 45.5%.

What about the viability, T/C (second compound 0.00316 µM, first compound 0.1 µM) of the same compound?
Its viability, T/C is 30.2%.

What about the viability, T/C (second compound 0.00316 µM, first compound 0.316 µM) of the same compound?
The viability, T/C was 15%.

And the viability, T/C (second compound 0.00316 µM, first compound 1 µM)?
The viability, T/C was 13.9%.

What about the viability, T/C (second compound 0.00316 µM, first compound 3.16 µM) of the same compound?
The viability, T/C was 9.04%.

What about the viability, T/C (second compound 0.00316 µM, first compound 10 µM) of the same compound?
Its viability, T/C is 8.74%.

What about the viability, T/C (second compound 0.01 µM, first compound 0.0316 µM) of the same compound?
The viability, T/C was 34.9%.

What about the viability, T/C (second compound 0.01 µM, first compound 0.1 µM) of the same compound?
Its viability, T/C is 22.6%.

What about the viability, T/C (second compound 0.01 µM, first compound 0.316 µM) of the same compound?
The viability, T/C was 11.9%.

What about the viability, T/C (second compound 0.01 µM, first compound 1 µM) of the same compound?
The viability, T/C was 11.9%.

And the viability, T/C (second compound 0.01 µM, first compound 3.16 µM)?
Its viability, T/C is 9.09%.

And the viability, T/C (second compound 0.01 µM, first compound 10 µM)?
Its viability, T/C is 10.8%.

What about the viability, T/C (second compound 0.0316 µM, first compound 0.0316 µM) of the same compound?
Its viability, T/C is 30.6%.

And the viability, T/C (second compound 0.0316 µM, first compound 0.1 µM)?
Its viability, T/C is 18.5%.

What about the viability, T/C (second compound 0.0316 µM, first compound 0.316 µM) of the same compound?
The viability, T/C was 12.2%.

And the viability, T/C (second compound 0.0316 µM, first compound 1 µM)?
The viability, T/C was 10.9%.

What about the viability, T/C (second compound 0.0316 µM, first compound 3.16 µM) of the same compound?
The viability, T/C was 10.3%.

What about the viability, T/C (second compound 0.0316 µM, first compound 10 µM) of the same compound?
The viability, T/C was 7.74%.

And the viability, T/C (second compound 0.1 µM, first compound 0.0316 µM)?
Its viability, T/C is 30.8%.

What about the viability, T/C (second compound 0.1 µM, first compound 0.1 µM) of the same compound?
Its viability, T/C is 15.1%.

And the viability, T/C (second compound 0.1 µM, first compound 0.316 µM)?
The viability, T/C was 11%.

And the viability, T/C (second compound 0.1 µM, first compound 1 µM)?
The viability, T/C was 10.3%.

What about the viability, T/C (second compound 0.1 µM, first compound 3.16 µM) of the same compound?
Its viability, T/C is 9.12%.

And the viability, T/C (second compound 0.1 µM, first compound 10 µM)?
The viability, T/C was 8.09%.

What about the viability, T/C (second compound 0.316 µM, first compound 0.0316 µM) of the same compound?
The viability, T/C was 28.3%.

What about the viability, T/C (second compound 0.316 µM, first compound 0.1 µM) of the same compound?
Its viability, T/C is 14.4%.

And the viability, T/C (second compound 0.316 µM, first compound 0.316 µM)?
Its viability, T/C is 11.2%.

What about the viability, T/C (second compound 0.316 µM, first compound 1 µM) of the same compound?
Its viability, T/C is 10.5%.

And the viability, T/C (second compound 0.316 µM, first compound 3.16 µM)?
The viability, T/C was 6.82%.

And the viability, T/C (second compound 0.316 µM, first compound 10 µM)?
Its viability, T/C is 8.51%.

And the viability, T/C (second compound 1 µM, first compound 0.0316 µM)?
Its viability, T/C is 29.5%.

And the viability, T/C (second compound 1 µM, first compound 0.1 µM)?
Its viability, T/C is 15.3%.

And the viability, T/C (second compound 1 µM, first compound 0.316 µM)?
Its viability, T/C is 10.8%.

What about the viability, T/C (second compound 1 µM, first compound 1 µM) of the same compound?
Its viability, T/C is 9.35%.

And the viability, T/C (second compound 1 µM, first compound 3.16 µM)?
Its viability, T/C is 10.7%.

And the viability, T/C (second compound 1 µM, first compound 10 µM)?
Its viability, T/C is 5.7%.

Which results are given for Cc1nc(N2CCC3(CC2)COC(C)C3N)c(CO)nc1Sc1ccnc(N)c1Cl (stereo not given) + CCn1c(-c2cccnc2C(C)OC)c2c3cc(ccc31)N1CCOC(CC(NC(=O)C(C(C)C)N(C)C(=O)C3(F)CCN(C(=O)C#CC(C)(C)N(C)C)CC3)C(=O)N3CCCC(N3)C(=O)OCC(C)(C)C2)C1?
IC50 [1]: 2920 nM; IC50 [2]: 541 nM; IC50 [3]: 738 nM; IC50 [4]: 465 nM; IC50 [5]: 302 nM; IC50 [6]: 213 nM; viability, T/C [7]: 120%; viability, T/C [8]: 101%; viability, T/C [9]: 60.3%; viability, T/C [10]: 65.7%; viability, T/C [11]: 63.3%; viability, T/C [12]: 31.3%; viability, T/C [13]: 107%; viability, T/C [14]: 80.1%; viability, T/C [15]: 42.9%; viability, T/C [16]: 55.6%; viability, T/C [17]: 35.3%; viability, T/C [18]: 18.3%; viability, T/C [19]: 80.7%; viability, T/C [20]: 59.4%; viability, T/C [21]: 83.1%; viability, T/C [22]: 41.3%; viability, T/C [23]: 23.9%; viability, T/C [24]: 22.4%; viability, T/C [25]: 77.8%; viability, T/C [26]: 70.5%; viability, T/C [27]: 58.5%; viability, T/C [28]: 34.9%; viability, T/C [29]: 20.1%; viability, T/C [30]: 20.9%; viability, T/C [31]: 81.4%; viability, T/C [32]: 64.2%; viability, T/C [33]: 51.5%; viability, T/C [34]: 35.5%; viability, T/C [35]: 19.8%; viability, T/C [36]: 23%; viability, T/C [37]: 84.8%; viability, T/C [38]: 66.1%; viability, T/C [39]: 41.6%; viability, T/C [40]: 26.5%; viability, T/C [41]: 20.3%; viability, T/C [42]: 19.4%

— PubChem BioAssay AID2060892 (Molecular Pharmacology Branch, DTP, NCI, 2025)
